Data taken from publication PMC6008586, “Analysis of transition state mimicry by tight binding aminothiazoline inhibitors provides insight into catalysis by human O-GlcNAcase” (Chemical Science, 2016).
Like-named read-outs stand apart in the source and are kept apart here.

Experiments:
[1] = reference compound with known pKa; cited from earlier work
[2] = test system: human lysosomal β-hexosaminidase (HEX); conditions: cited from earlier work
human OGA (hOGA) = biological target: T1, human OGA (hOGA) (Homo sapiens, UniProt O60502); experiment: Inhibition of hOGA-catalysed 4-MUGlcNAc hydrolysis (Ki determination); type: biochemical
T1 construct: made in house
T1 sequence (O60502 1-916): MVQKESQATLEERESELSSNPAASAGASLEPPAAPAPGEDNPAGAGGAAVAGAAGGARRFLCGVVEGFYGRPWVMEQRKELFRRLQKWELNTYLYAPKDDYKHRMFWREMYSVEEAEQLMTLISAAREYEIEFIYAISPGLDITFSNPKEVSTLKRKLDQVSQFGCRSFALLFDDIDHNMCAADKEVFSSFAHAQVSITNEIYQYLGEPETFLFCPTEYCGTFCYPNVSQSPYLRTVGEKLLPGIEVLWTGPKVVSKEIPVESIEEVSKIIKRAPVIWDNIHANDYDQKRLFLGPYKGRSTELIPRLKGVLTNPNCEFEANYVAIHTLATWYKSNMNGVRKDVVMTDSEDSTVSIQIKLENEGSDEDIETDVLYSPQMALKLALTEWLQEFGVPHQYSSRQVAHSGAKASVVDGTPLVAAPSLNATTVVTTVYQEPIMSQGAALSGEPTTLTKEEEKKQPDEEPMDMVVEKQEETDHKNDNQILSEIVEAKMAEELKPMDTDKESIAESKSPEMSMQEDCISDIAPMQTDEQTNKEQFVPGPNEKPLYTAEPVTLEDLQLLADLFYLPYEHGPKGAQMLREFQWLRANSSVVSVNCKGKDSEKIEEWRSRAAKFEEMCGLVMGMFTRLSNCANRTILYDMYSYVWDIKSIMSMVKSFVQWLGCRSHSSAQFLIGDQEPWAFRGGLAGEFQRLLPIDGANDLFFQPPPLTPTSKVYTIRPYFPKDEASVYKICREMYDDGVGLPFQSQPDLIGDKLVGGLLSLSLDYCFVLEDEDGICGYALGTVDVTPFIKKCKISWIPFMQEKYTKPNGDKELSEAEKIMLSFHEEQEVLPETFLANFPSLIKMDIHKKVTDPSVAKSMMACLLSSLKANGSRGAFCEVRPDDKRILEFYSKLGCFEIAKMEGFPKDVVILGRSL
Excerpt: Refinement of the Morrison approach by Copeland enables defining the Ki value for an inhibitor through the use of relative rates using a quadratic equation (eqn (1)).[46] This approach depends on knowing the initial free enzyme and inhibitor concentrations without the assumption that the free inhibitor concentration is equal to the total inhibitor concentration.1 [drawing 1]
Further, Ki values can be accurately determined over a wide range of enzyme concentrations using this method,[47] which enabled us to use hOGA concentrations that permit accurate initial rate determinations. […]
(§1) Biological evaluation: Gene expression and protein purification. hOGA was expressed and purified according to the previously described procedure by Macauley et al.[5] hOGA was dialyzed twice against PBS buffer after purification and its concentration determined using the Nanodrop2000. Human β-hexosaminidase was obtained from Micheal Tropak at the Hospital for Sick Children in Toronto, without further purification.
(§2) Kinetic analysis of hOGA. […]
(§3) in PBS pH 7.4 buffer (0.03% BSA) in triplicate at 37°C for 20 minutes. A continuous assay procedure was performed in which the reactions were initiated by the addition of 4-MUGlcNAc substrate (50 µL or 100 µL via a multi-channel […]
(§4) The excitation and emission were 350
(§5) The amount of fluorogenic substrate liberated was quantitatively assessed by using a standard curve for 4-methylumbelliferone under identical buffer conditions. A total of 6-8 inhibitor concentrations were tested, […]
(§6) The hOGA concentrations in the assays ranged from 0.8 nM to 20 nM, depending on whether the Ki being determined was through classic Michaelis-Menten methods or the Morrison Ki fit. For full Ki […]
For the Morrison Ki analyses, only one substrate concentration was used (at the Km) since the method of inhibition was already known from analysis using the Line-weaver Burke plots.
Kinetic analysis of substrates 18a-e were performed in triplicate using pH 7.4 PBS buffer (0.03% BSA) containing 2.5% DMF, with varying enzyme concentrations. […]

[3] = biological target: T2, human hexosaminidase B (hHexB) (Homo sapiens, UniProt P07686); experiment: Inhibition of human hexosaminidase B (4-MUGlcNAc substrate); type: biochemical; conditions: for (hHexB/hOGA) selectivity ratio: Ki hHexB / Ki hOGA, favored selectivity for hOGA; for Ki: pH 4.25, 37°C
T2 construct: Micheal Tropak, Hospital for Sick Children, Toronto (gift, not a vendor)
T2 sequence (P07686 122-556): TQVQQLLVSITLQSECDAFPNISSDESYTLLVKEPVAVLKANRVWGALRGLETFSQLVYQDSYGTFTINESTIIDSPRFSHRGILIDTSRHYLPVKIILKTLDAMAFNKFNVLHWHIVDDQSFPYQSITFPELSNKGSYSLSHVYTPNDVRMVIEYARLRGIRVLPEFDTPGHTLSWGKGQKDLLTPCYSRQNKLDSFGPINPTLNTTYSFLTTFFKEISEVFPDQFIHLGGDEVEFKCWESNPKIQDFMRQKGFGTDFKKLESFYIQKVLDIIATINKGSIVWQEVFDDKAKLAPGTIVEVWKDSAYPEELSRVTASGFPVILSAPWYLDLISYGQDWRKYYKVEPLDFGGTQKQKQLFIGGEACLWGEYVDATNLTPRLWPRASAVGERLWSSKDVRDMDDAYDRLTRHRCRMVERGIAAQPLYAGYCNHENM
Excerpt: We next set out to assess the selectivity of this series of inhibitors for hOGA over the lysosomal β-hexosaminidases, which are comprised of combinations of α and β subunits that are products of the highly homologous HEXA and HEXB genes. […]
as §1, §2, §3, §4, §5, §6
For the Morrison Ki analyses, only one substrate concentration was used (at the Km) since the method of inhibition was already known from analysis using the Line-weaver Burke plots. […]
Kinetic analysis of β-hexosaminidase. All assays were carried out in 96 well plates (Thermoscientific, FloroNunc, lot […]
reactions were triggered by addition of substrate (20 µL or 15 µL) in a total volume of 45 or 40 µL. Reactions were […]
detect the fluorescent signal. […]

physchem = conditions: aqueous solution (H2O/D2O) with reference phenol
Procedure: (§7) In this way, a non-linear plot of the difference between NMR resonance frequencies for a compound of interest and those for a standard, such as 3-nitrophenol, can be used to determine the ratio (R) of the acid dissociation constants between these two materials.
(§8) pK determination using 13C NMR. All titrations were carried out on the Bruker AVANCE II 600 MHz NMR
(§9) spectrometer. The samples prepared for each titration contained 5 µL of 1,4-dioxane as an internal standard, an equal mol
(§10) amount of inhibitor and 3-nitrophenol or 3.4-dinitrophenol (depending on the availability of each compound) in 500 µL of
(§11) Each sample was made basic with 25-70 µL of 2M NaOH, and prior to
(§12) titration, it was ensured that there was no change in chemical shift with further addition of base in 5 µL increments, in
(§13) order to accurately establish the δd for each compound. The basic sample was then titrated with 10 µL of 0.5 M (15f-15h,
(§14) titration was reached. The point where the chemical shift stopped changing was the recorded δp for each compound. The
(§15) relative pKa (∆pKa) was then determined by non-linear fitting of data to Equation S1, which provides the value of R (R =
(§16) K x/K r) and describes the relationship between the difference (∆) in chemical shifts (δ) between each compound of
(§17) unknown pKa (x) and the reference compound with known pKa (r). δp and δd represent the chemical shifts of the protonated
(§18) and de-protonated species of each compound, where ∆ expresses the difference between the de-protonated species (δ x –
(§19) δd ), ∆ represents the difference between the deprotonated and protonated species of x (δd – δp ), and ∆ for that of the
(§20) reference compound (∆r = δ r – δ r). The fractional protonation of the reference compound is represented by n and is equal
We observed the 2′-carbon of the
(§21) aminothiazoline system and the C-1 carbon of 3-nitrophenol since these are most proximal to the ionizable center. Fitting
(§22) of the resulting data to Equation S1 (Figure 5 (ThiamEt-G), Supplemental Figure S7) enabled us to obtain values of R for
(§23) each compound and, by comparison to the reference compound, absolute pKa values (Table 1). The observed pKa values

[4] = pKa determination using 13C NMR titration
Procedure: as §7, §8, §9, §10, §11, §12, §13, §14, §15, §16, §17, §18, §19, §20
We observed the 2′-carbon of the
as §21, §22, §23

hOGA = biological target: T3, hOGA (Homo sapiens, UniProt O60502); conditions: cited from earlier work
T3 construct: made in house
T3 sequence (O60502 1-916): T1 sequence (O60502 1-916)

[5] = Morrison Ki fit, 4-MUGlcNAc, PBS pH 7.4, 37°C, read-out: hOGA Ki
[6] = Dixon plot analysis (approximate Ki)
[7] = 3-nitrophenol as reference compound
[8] = Michaelis–Menten inhibition analysis, 4-MUGlcNAc, PBS pH 7.4, 37°C, read-out: hOGA Ki
[9] = 3,4-dinitrophenol as reference compound

## O=[N+]([O-])c1cccc(O)c1 [3-nitrophenol]
[1]
  pKa: 8.42

## CC(=O)N[C@H]1CN2CC[C@H](O)[C@@H]2[C@@H](O)[C@@H]1O [6-Ac-Cas, 6-acetamido-6-deoxy-castanospermine]
[2]; in words
  selectivity for hOGA over lysosomal β-hexosaminidases: non-selective

## NC1=N[C@@H]2[C@@H](O)[C@H](O)[C@@H](CO)O[C@@H]2S1 [11a]
Human OGA (hOGA); [5]
  Ki: 0.0047 ± 0.0003 µM
[3]
  (hHexB/hOGA) selectivity ratio: 1100
[3]; Michaelis–Menten inhibition analysis (full Ki)
  Ki: 5 ± 0.6 µM

## C=CCNC1=N[C@@H]2[C@@H](O)[C@H](O)[C@@H](CO)O[C@@H]2S1 [11b]
Human OGA (hOGA); Lineweaver–Burk / Michaelis-Menten analysis
  mode of inhibition of hOGA: competitive inhibition
Human OGA (hOGA); Michaelis-Menten analysis, hOGA 0.8 nM (Figure S2A), read-out: hOGA Ki
  Ki: 0.0023 ± 0.0003 µM
Human OGA (hOGA); [5]
  Ki: 0.0032 ± 0.0004 µM
Human OGA (hOGA); Morrison approach, hOGA 10 nM, substrate 60 µM (Figure S2B), read-out: hOGA Ki
  Ki: 0.0032 ± 0.0004 µM
Human OGA (hOGA); graphical determination, Km app against inhibitor concentration (Figure S2A inset), read-out: hOGA Ki
  Ki: 0.0047 µM
[3]; [6]
  Ki: 2850 ± 570 µM
[3]
  (hHexB/hOGA) selectivity ratio: 950 000

## CN(C)C1=N[C@@H]2[C@@H](O)[C@H](O)[C@@H](CO)O[C@@H]2S1 [15b]
[3]; [6]
  Ki: 13 ± 3.8 µM

## CCNC1=N[C@@H]2[C@@H](O)[C@H](O)[C@@H](CO)O[C@@H]2S1 [15c, 1,2-dideoxy-2′-ethylamino-α-D-glucopyranoso-[2,1-d]-Δ2′-thiazoline]
[2]; read-out: hHexB Ki
  Ki: 740 ± 60 µM
physchem
  pKa: 7.68
[4]; [7]
  R (Kax/Kar): 0.1823 ± 0.0042
[4]
  Fraction protonated at pH 7.4: 0.66

## CCCNC1=N[C@@H]2[C@@H](O)[C@H](O)[C@@H](CO)O[C@@H]2S1 [15d]
Human OGA (hOGA); [5]
  Ki: 0.002 ± 0.0002 µM
[3]; [6]
  Ki: 3700 ± 670 µM
[3]
  (hHexB/hOGA) selectivity ratio: 1 850 000

## CCCCNC1=N[C@@H]2[C@@H](O)[C@H](O)[C@@H](CO)O[C@@H]2S1 [15e]
Human OGA (hOGA); [8]
  Ki: 0.35 ± 0.09 µM
[3]; [6]
  Ki: 4800 ± 763 µM
[3]
  (hHexB/hOGA) selectivity ratio: 13 700

## OC[C@H]1O[C@@H]2SC(NCCF)=N[C@@H]2[C@@H](O)[C@@H]1O [15f]
Human OGA (hOGA)
  Ki: 0.015 ± 0.005 µM
[3]; [6]
  Ki: 180 ± 44 µM
[3]
  (hHexB/hOGA) selectivity ratio: 12 000
physchem
  pKa: 6.92
[4]; [7]
  R (Kax/Kar): 0.0316 ± 0.0063
[4]
  Fraction protonated at pH 7.4: 0.25

## OC[C@H]1O[C@@H]2SC(NCC(F)F)=N[C@@H]2[C@@H](O)[C@@H]1O [15g]
Human OGA (hOGA); [8]
  Ki: 0.06 ± 0.01 µM
[3]; [6]
  Ki: 150 ± 50 µM
[3]
  (hHexB/hOGA) selectivity ratio: 2500
physchem
  pKa: 6.18
[4]; [7]
  R (Kax/Kar): 0.0058 ± 0.0002
[4]
  Fraction protonated at pH 7.4: 0.06

## OC[C@H]1O[C@@H]2SC(NCC(F)(F)F)=N[C@@H]2[C@@H](O)[C@@H]1O [15h]
Human OGA (hOGA); [8]
  Ki: 1 ± 0.2 µM
[3]; [6]
  Ki: 4200 ± 1530 µM
[3]
  (hHexB/hOGA) selectivity ratio: 4200
physchem
  pKa: 5.33
[4]; [9]
  R (Kax/Kar): 1.213 ± 0.049
[4]
  Fraction protonated at pH 7.4: 0.01

## CC(C)C(=O)N[C@H]1c2nc(CCc3ccccc3)cn2[C@H](CO)[C@@H](O)[C@@H]1O [GlcNAcstatin C]
hOGA
  Ki: 0.0032 µM
[2]
  Ki(HEX)/Ki(hOGA): 190

## C=CC=CC(=O)N[C@H]1c2nc(CCc3ccccc3)cn2[C@H](CO)[C@@H](O)[C@@H]1O [GlcNAcstatin G]
hOGA
  Ki: 0.0041 µM
[2]
  Ki(HEX)/Ki(hOGA): 900 000

## CCCCC(=O)N[C@H]1c2nc(CCc3ccccc3)cn2[C@H](CO)[C@@H](O)[C@@H]1O [GlcNAcstatin H]
[2]
  Ki(HEX)/Ki(hOGA): 35 000

## CCCC1=N[C@@H]2[C@@H](O)[C@H](O)[C@@H](CO)O[C@@H]2S1 [NButGT, reference compound]
[2]; selectivity for hOGA over lysosomal β-hexosaminidases
  Ki(HEX)/Ki(hOGA): 1,500
physchem
  pKa: 4.65
[4]; [9]
  R (Kax/Kar): 5.47 ± 3.28
